Several values for one entry are separate records, joined by “and”; a condition that tells them apart may be missing. Identical values can stand only once. Like-named read-outs stand apart in the source and are kept apart here.
System: mtrC-lacZ expression
Assay type: cell-based, Neisseria gonorrhoeae
Conditions: for β-galactosidase activity, Miller units (single replicate) / β-galactosidase activity, individual replicate: mtrR WT in cis; for β-galactosidase activity, individual replicate: single replicate values, second (right) block; for Miller units: single well; for mtrC-lacZ β-galactosidase activity, Mean: left block of sheet (mtrCDE)
[1] = second block of sheet (c39-c76), ΔmtrR + mtrR R176E in trans, 6.25 µM
[2] = second block of sheet (c39-c76), ΔmtrR + mtrR R176E in trans, 12.5 µM
[3] = second block of sheet (c39-c76), ΔmtrR + mtrR R176E in trans, 25 µM
[4] = second block of sheet (c39-c76), ΔmtrR + mtrR R176E in trans, 50 µM

In the case of `C[C@]12CC[C@H]3[C@@H](CCC4=CC(=O)CC[C@@]43C)[C@@H]1CC[C@@H]2O` [Testosterone, testosterone], the “Miller units, Mean” value (mtrCDE, ΔmtrR, testosterone 100 µM, left block Plate-4) is reported as 369 Miller units, the “β-galactosidase activity, Miller units (single replicate)” value (shortened to “β-galactosidase activity, Miller units”) (1 µM, first data set (c15-c36)) is reported as 149 Miller units and 125 Miller units and 138 Miller units and 141 Miller units and the “β-galactosidase activity, individual replicate” value (6.25 µM hormone) is reported as 103 Miller units and 88 Miller units. The “β-galactosidase activity, Miller units” value (6.25 µM, second data set (c53-c74)) was 73 Miller units and 58 Miller units, the “β-galactosidase activity, Miller units” value (10 µM, first data set (c15-c36)) was 251 Miller units and 213 Miller units and 245 Miller units and 230 Miller units and the “β-galactosidase activity, individual replicate” value (12.5 µM hormone) was 126 Miller units. For the same compound, the “β-galactosidase activity, Miller units” value (12.5 µM, second data set (c53-c74)) was 92 Miller units and 94 Miller units, the “β-galactosidase activity, individual replicate” value (25 µM hormone) was 144 Miller units and 138 Miller units and the “β-galactosidase activity, Miller units” value (25 µM, first data set (c15-c36)) was 283 Miller units and 251 Miller units and 242 Miller units and 281 Miller units. The “β-galactosidase activity, Miller units” value (25 µM, second data set (c53-c74)) was 129 Miller units and 111 Miller units, the “β-galactosidase activity, individual replicate” value (50 µM hormone) was 161 Miller units and 150 Miller units and the “β-galactosidase activity, Miller units” value (50 µM, first data set (c15-c36)) was 237 Miller units and 229 Miller units and 224 Miller units and 225 Miller units. The “β-galactosidase activity, Miller units” value (50 µM, second data set (c53-c74)) was 118 Miller units and 110 Miller units, the “β-galactosidase activity, Miller units” value (100 µM, first data set (c15-c36)) was 228 Miller units and 230 Miller units and 281 Miller units and 254 Miller units and the “β-galactosidase activity, Mean” value [1] was 60 Miller units. For the same compound, the “β-galactosidase activity, single replicate” value [1] was 66 Miller units and 62 Miller units and 61 Miller units and 50 Miller units, the “β-galactosidase activity, Mean” value [2] was 68 Miller units and the “β-galactosidase activity, single replicate” value [2] was 65 Miller units and 76 Miller units and 70 Miller units and 59 Miller units. The “β-galactosidase activity, Mean” value [3] was 80 Miller units, the “β-galactosidase activity, single replicate” value [3] was 70 Miller units and 77 Miller units and 92 Miller units and 80 Miller units and the “β-galactosidase activity, Mean” value [4] was 83 Miller units. For the same compound, the “β-galactosidase activity, single replicate” value [4] was 89 Miller units and 78 Miller units and 94 Miller units and 70 Miller units, the Miller units (plate rows 1-4, plate columns 1-6 (first strain), 6.25 µM hormone) was 96 Miller units and 59 Miller units and 65 Miller units and 57 Miller units and the Miller units (plate rows 1-4, plate columns 1-6 (first strain), 12.5 µM hormone) was 116 Miller units and 66 Miller units and 73 Miller units and 70 Miller units. For the same compound, the Miller units (plate rows 1-4, plate columns 1-6 (first strain), 25 µM hormone) was 132 Miller units and 102 Miller units and 83 Miller units and 75 Miller units, the Miller units (plate rows 1-4, plate columns 1-6 (first strain), 50 µM hormone) was 147 Miller units and 111 Miller units and 107 Miller units and 103 Miller units and the Miller units (plate rows 1-4, plate columns 7-12 (second strain), 6.25 µM hormone) was 119 Miller units and 100 Miller units and 89 Miller units and 76 Miller units. For the same compound, the Miller units (plate rows 1-4, plate columns 7-12 (second strain), 12.5 µM hormone) was 126 Miller units and 101 Miller units and 100 Miller units and 81 Miller units, the Miller units (plate rows 1-4, plate columns 7-12 (second strain), 25 µM hormone) was 155 Miller units and 122 Miller units and 93 Miller units and 79 Miller units and the Miller units (plate rows 1-4, plate columns 7-12 (second strain), 50 µM hormone) was 151 Miller units and 132 Miller units and 101 Miller units and 93 Miller units. The “β-galactosidase activity, mtrC-lacZ, Mean” value (strain WT (FA19/pLES94-mtrC), hormone 6.25 µM) was 141 Miller units, the “β-galactosidase activity, mtrC-lacZ, Mean” value (strain WT (FA19/pLES94-mtrC), hormone 12.5 µM) was 166 Miller units and the “β-galactosidase activity, mtrC-lacZ, Mean” value (strain WT (FA19/pLES94-mtrC), hormone 25 µM) was 178 Miller units. For the same compound, the “β-galactosidase activity, mtrC-lacZ, Mean” value (strain WT (FA19/pLES94-mtrC), hormone 50 µM) was 195 Miller units, the “mtrC-lacZ β-galactosidase activity, Mean” value (strain WT, 1 µM hormone) was 138 Miller units and the “β-galactosidase activity, Mean” value (strain WT, 6.25 µM hormone, second (right) untitled block of sheet Figure S10 (mtrC)) was 81 Miller units. The “mtrC-lacZ β-galactosidase activity, Mean” value (strain WT, 10 µM hormone) was 235 Miller units, the “mtrC-lacZ β-galactosidase activity, Mean” value (strain WT, 25 µM hormone) was 264 Miller units and the “β-galactosidase activity, Mean” value (strain WT, 25 µM hormone, second (right) untitled block of sheet Figure S10 (mtrC)) was 130 Miller units. For the same compound, the “mtrC-lacZ β-galactosidase activity, Mean” value (strain WT, 50 µM hormone) was 229 Miller units, the “β-galactosidase activity, Mean” value (strain WT, 50 µM hormone, second (right) untitled block of sheet Figure S10 (mtrC)) was 134 Miller units and the “mtrC-lacZ β-galactosidase activity, Mean” value (strain WT, 100 µM hormone) was 248 Miller units. For the same compound, the “activation of mtrC” value (strain producing MtrR R176E) was “significantly less activation”, the “β-galactosidase activity, mtrC-lacZ, Mean” value (strain ΔmtrR (FA19 ∆mtrR/pLES94-mtrC), hormone 6.25 µM) was 265 Miller units and the “β-galactosidase activity, mtrC-lacZ, Mean” value (strain ΔmtrR (FA19 ∆mtrR/pLES94-mtrC), hormone 12.5 µM) was 244 Miller units. The “β-galactosidase activity, mtrC-lacZ, Mean” value (strain ΔmtrR (FA19 ∆mtrR/pLES94-mtrC), hormone 25 µM) was 276 Miller units, the “β-galactosidase activity, mtrC-lacZ, Mean” value (strain ΔmtrR (FA19 ∆mtrR/pLES94-mtrC), hormone 50 µM) was 272 Miller units and the “β-galactosidase activity, mtrC-lacZ, Mean” value (strain ΔmtrR + mtrR D171A (pGCC3-mtrR D171A), hormone 6.25 µM) was 170 Miller units. The “β-galactosidase activity, mtrC-lacZ, Mean” value (strain ΔmtrR + mtrR D171A (pGCC3-mtrR D171A), hormone 12.5 µM) was 175 Miller units, the “β-galactosidase activity, mtrC-lacZ, Mean” value (strain ΔmtrR + mtrR D171A (pGCC3-mtrR D171A), hormone 25 µM) was 170 Miller units and the “β-galactosidase activity, mtrC-lacZ, Mean” value (strain ΔmtrR + mtrR D171A (pGCC3-mtrR D171A), hormone 50 µM) was 162 Miller units. For the same compound, the “mtrC-lacZ β-galactosidase activity, Mean” value (strain ΔmtrR + mtrR R176E, 1 µM hormone) was 178 Miller units, the “β-galactosidase activity, Mean” value (strain ΔmtrR + mtrR R176E, 6.25 µM hormone, second (right) untitled block of sheet Figure S10 (mtrC)) was 60 Miller units and the “mtrC-lacZ β-galactosidase activity, Mean” value (strain ΔmtrR + mtrR R176E, 10 µM hormone) was 206 Miller units. The “β-galactosidase activity, Mean” value (strain ΔmtrR + mtrR R176E, 12.5 µM hormone, second (right) untitled block of sheet Figure S10 (mtrC)) was 68 Miller units, the “β-galactosidase activity, Mean” value (strain ΔmtrR + mtrR R176E, 25 µM hormone, second (right) untitled block of sheet Figure S10 (mtrC)) was 80 Miller units and the “mtrC-lacZ β-galactosidase activity, Mean” value (strain ΔmtrR + mtrR R176E, 50 µM hormone) was 224 Miller units.

— article PMC10850145, “Hormonal steroids induce multidrug resistance and stress response genes in Neisseria gonorrhoeae by binding to MtrR” (Nature Communications, 2024)
